Data published in patent US11568956B2, “Methods for identifying inhibitors of amyloid protein aggregation” (Treventis Corporation, priority 2008, dated 2023).

target: T1, Aβ 1-40 (Homo sapiens, UniProt P05067); assay: ThT aggregation assay of Aβ 1-40; type: biochemical
T1 construct: ThT aggregation assays of Aβ 1-40 and alpha synuclein
Description: The anti-amyloid activity of these compounds was evaluated by ThT aggregation assays of Aβ 1-40 and alpha synuclein, as set forth below. The column “A-Syn” below is a functional ThT aggregation assay of alpha synuclein.

T1 sequence (P05067 672-711 limits assumed): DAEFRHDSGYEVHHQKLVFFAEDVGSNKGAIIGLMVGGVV

| Structure (SMILES) | IC50 [µM] |
| --- | --- |
| COc1ccc2ccccc2c1/C=N/c1ccc(S(N)(=O)=O)cc1 | > 20 |
| O=C(COc1ccccc1)Nc1ccc2c(c1)C(=O)NC2=O | > 20 |
| COc1ccc(N(C)S(=O)(=O)c2ccc(NS(=O)(=O)c3cccs3)cc2)c(OC)c1 | > 20 |
| COc1ccccc1N1CCN(C(=O)CN(c2ccc(F)cc2)S(=O)(=O)c2ccccc2)CC1 | > 20 |
| COc1ccccc1NC(=O)C1CC(O)CN1C(=O)OCc1ccccc1 (stereo not drawn) | > 20 |
| COc1ccc(CNCc2ccc(F)cc2)cc1OC | > 100 |
| COc1ccc2cc(C(C)N)ccc2c1 (stereo not drawn) | > 100 |
| c1ccc2c(c1)CCCC2NCc1ccncc1 (stereo not drawn) | > 100 |
| COc1ccc(CC(=O)Nc2ccc(S(=O)(=O)Nc3nc(C)cc(C)n3)cc2)cc1 | > 50 |
| COc1ccc(NS(=O)(=O)c2ccc(NS(=O)(=O)c3cccs3)cc2)c(OC)c1 | > 50 |
| COc1ccc(NS(=O)(=O)c2ccc(NS(=O)(=O)c3ccc(Br)s3)cc2)c(OC)c1 | > 50 |
| COc1ccc(C2(C(=O)Nc3ccc(S(=O)(=O)Nc4ncccn4)cc3)CCCC2)cc1OC | > 50 |
